{
  "source": "patent US20080070924A1",
  "about": "(priority 2003, published 2008)",
  "key": {"[1]": {"test_system": "ricinus oil-induced diarrhea", "settings": "in vivo; for effect on ricinus oil-induced diarrhea: sc"}, "[2]": {"test_system": "ricinus oil-induced diarrhea", "settings": "rat, in vivo"}, "[3]": {"test_system": "opioid-induced PCO2 increases", "settings": "in vivo"}, "[4]": {"test_system": "opioid-induced PCO2 increases", "settings": "guinea pig, in vivo"}, "[5]": {"test_system": "charcoal propulsion", "parameters": "species or system rats", "settings": "rat, in vivo"}, "[6]": {"test_system": "opioid-induced PCO2 increases", "settings": "rat, in vivo, sc"}, "[7]": {"test_system": "charcoal propulsion", "settings": "in vivo"}, "[8]": {"test_system": "acetone-induced lifting behaviour", "experiment": "Tolerance in a chronic neuropathic pain model (CCI gerbils, acetone spray test)", "format": "in vivo"}, "[9]": {"test_system": "morphine-induced emesis", "experiment": "Inhibition of morphine-induced emesis in ferrets"}, "[10]": {"test_system": "ricinus oil-induced diarrhea", "experiment": "whole plant or invertebrate", "settings": "in Meriones unguiculatus, sc, 8 h, read-out: ED50 of the opioid to postpone the ricinus oil-induced diarrhea"}},
  "note": "Where two headings read alike, the source gives them in different places.",
  "data": [
    {"compound": "COc1ccc2c3c1O[C@H]1[C@@H](O)C=C[C@H]4[C@@H](C2)N(C)CC[C@@]341", "note": "[Codeine, codeine]", "values": [
      {"measurement": "effect on ricinus oil-induced diarrhea", "setting": "[1]", "result": "dose-dependent inhibition"}
    ]},
    {"compound": "(+)-(B)-trans-4-[1-[3,5-bis(trifluoromethyl)benzoyl]-2-(phenylmethyl)-4-piperidinyl]-N-(2,6-dimethylphenyl)-1-piperazine acetamide (L)-malic acid (1:1) [Compound 95]", "values": [
      {"measurement": "effect of adding to the opioids on their ED50s", "setting": "[2]", "result": "did not alter the ED50s of the opioids"},
      {"measurement": "effects on constipation, given alone", "setting": "[2]", "result": "minimal effects"},
      {"measurement": "effect of adding to the opioids on their ED50s", "setting": "[1]", "result": "did not alter the ED50s of the opioids"},
      {"measurement": "effects on constipation, given alone", "setting": "[1]", "result": "minimal effects"},
      {"measurement": "effect on PCO2, given alone", "setting": "[3]", "result": "no effects were observed"},
      {"measurement": "effect on opioid-induced PCO2 levels", "setting": "[3]", "result": "significant decreases"},
      {"measurement": "effect on PCO2, given alone", "setting": "[4]", "result": "did not affect PCO2 values"},
      {"measurement": "effect on opioid-induced PCO2 levels", "setting": "[4]", "result": "reductions in the opioid-induced PCO2 levels"},
      {"measurement": "charcoal test result in rats compared with gerbils", "setting": "[5]", "result": "comparable results"},
      {"measurement": "effect on PCO2, given alone", "setting": "[6]; 40 mg/kg", "result": "did not affect the PCO2 levels"},
      {"measurement": "effect on opioid-induced increases in PCO2", "setting": "[6]; 40 mg/kg", "result": "some attenuation"},
      {"measurement": "number of animals reaching high (>50 mm Hg) levels of PCO2", "setting": "[6]; 40 mg/kg", "result": "especially reduced"},
      {"measurement": "effect of adding to the opioids on charcoal propulsion", "setting": "[7]", "result": "did not affect the outcome of the opioids"},
      {"measurement": "effect on charcoal propulsion, given alone", "setting": "[7]", "result": "inactive"},
      {"measurement": "acetone-induced lifting behaviour, given alone", "setting": "[8]; 2.5 mg/kg i.p. twice daily, 11 days, during some days of the experiment", "result": "limited activity"},
      {"measurement": "activity over the testing period, combination with morphine", "setting": "[8]; 2.5 mg/kg morphine with 2.5 mg/kg Compound 95 i.p. twice daily, 11 days", "result": "the activity remained present over the entire testing period"},
      {"measurement": "frequency of retches, vomiting and periods of emesis", "setting": "[9]; at 0.4 mg/kg morphine", "result": "non-significant tendency"},
      {"measurement": "number (frequency) of vomits", "setting": "[9]; at 0.8 mg/kg morphine, 10 mg/kg Compound 95 i.p.", "result": "diminished significantly"},
      {"measurement": "number of retches", "setting": "[9]; at 0.8 mg/kg morphine, 10 and 40 mg/kg i.p. Compound 95", "result": "significantly reduced"}
    ]},
    {"compound": "COc1ccc2c3c1O[C@H]1C(=O)CC[C@@]4(O)[C@@H](C2)N(C)CC[C@]314", "note": "[Oxycodone, oxycodone]", "values": [
      {"measurement": "effect on ricinus oil-induced diarrhea", "setting": "[1]", "result": "dose-dependent inhibition"},
      {"measurement": "ED50", "setting": "[10]", "result": 5.02, "unit": "mg/kg"}
    ]},
    {"compound": "CN1CC[C@]23c4c5ccc(O)c4O[C@H]2[C@@H](O)C=C[C@H]3[C@H]1C5", "note": "[Morphine, morphine]", "values": [
      {"measurement": "effect on ricinus oil-induced diarrhea", "setting": "[2]; sc", "result": "dose-dependent inhibition"},
      {"measurement": "effect on ricinus oil-induced diarrhea", "setting": "[1]", "result": "dose-dependent inhibition"},
      {"measurement": "PCO2 after opioid", "setting": "[4]; sc", "result": "increase in PCO2"},
      {"measurement": "charcoal test result in rats compared with gerbils", "setting": "[5]", "result": "comparable results"},
      {"measurement": "PCO2 after opioid", "setting": "[6]", "result": "increased levels of PCO2"},
      {"measurement": "acetone-induced lifting behaviour, acute effect", "setting": "[8]; 2.5 mg/kg i.p. twice daily", "result": "acutely reduced"},
      {"measurement": "acetone-induced lifting behaviour at day 7", "setting": "[8]; 2.5 mg/kg i.p. twice daily, reductions of activity from the second day onwards", "result": "no differences with the controls"},
      {"measurement": "ED50", "setting": "[10]", "result": 0.72, "unit": "mg/kg"},
      {"measurement": "doses causing central side-effects", "setting": "[9]; i.p.", "result": "> 0.8", "unit": "mg/kg"},
      {"measurement": "emesis on increasing the dose from 0.4 to 0.8 mg/kg", "setting": "[9]; i.p.", "result": "more animals with emesis and increased frequencies of periods of emesis, retches and vomiting"}
    ]}
  ]
}
